Laboratory results reported in patent US8426406B2, “Glucocorticoid receptor agonist comprising 2,2,4-trimethyl-6-phenyl-1,2-dihydroquinoline derivatives having substituted oxy group” (Santen Pharmaceutical Co., Ltd., priority 2008, dated 2013).

Test system: IL-6 production induced by lipopolysaccharide (LPS) in human corneal epithelial cells
Assay: Evaluation test for GR agonist activity: inhibition of LPS-induced IL-6 production in human corneal epithelial cells (HCE-T)
Assay type: cell-based
Settings: Corneal epithelial cell, 10 μL of 100 μM test compound solution per well, 4 hours incubation, efficacy relative to DEX
Experimental: In order to evaluate a GR agonist activity of the present compound, the inhibitory effects on the IL-6 production induced by lipopolysaccharide (LPS) in human corneal epithelial cells. IL-6 levels in the conditioned medium were measured using the HTRF human IL-6 Kit (boehringer-Ingelheim, Cat No. 62IL6PEB), and the procedure was carried out according to the protocol attached to the kit. Hereinafter, the specific method will be described.
LPS solution: After LPS was dissolved in phosphate buffer solution (hereinafter referred to as PBS(−)), the resulting solution was diluted with 10% FBS-DMEM/F12 medium, whereby a 1 μg/mL LPS solution was prepared.
After a test compound was dissolved in dimethylsulfoxide (hereinafter referred to as DMSO), the resulting solution was diluted with 10% FBS-DMEM/F12 medium, whereby a 100 μM test compound solution was prepared. A 100 μM DEX solution was prepared by the same method, and the inhibitory ratio of IL-6 production of DEX was evaluated to use for calculating efficacy (% DEX).
Used cell: SV40-immortalized human corneal epithelial cells (HCE-T) (RIKEN)
1) HCE-T cells were harvested, and seeded at 2.0×10^4 cells/0.1 mL/well in a 96-well plate.
2) After incubation overnight, the medium was removed and a 80 μL of new 10% FBS-DMEM/Ham's F12 medium was added into each well.
3) A 10 μL of test compounds solution was added into each well.
4) A 10 μL of LPS solution was added into each well.
5) As a negative control, a 10 μL of 10% FBS-DMEM/Ham's F12 medium was added into each well instead of a test compound solution and a LPS solution.
6) As a positive control, a 10 μL of 10% FBS-DMEM/Ham's F12 medium containing 1% DMSO was added into each well instead of a test compound solution.
7) After 4 hours incubation, supernatants were collected and IL-6 levels in the supernatants were quantitated using the HTRF human IL-6 Kit.
8) The inhibition ratio of IL-6 production (%) was calculated according to the following equation.
The inhibition ratio of IL-6 production (%) was calculated according to the following equation. The inhibition ratio of IL-6 production(%)=100×[1−(IL-6 level in each group−mean value of IL-6 level in negative control)/(mean value of IL-6 level in positive control−mean value of IL-6 level in negative control)](%)
Furthermore, the inhibition ratio of IL-6 production (efficacy (% DEX)) was also calculated according to the following equation. Efficacy(% DEX)=100×{(mean value of IL-6 inhibition in compound-treated group)/(mean value of IL-6 inhibition in DEX-treated group)}(%) (Result and Discussion)

Row | SMILES | Emax
1 | COc1ccccc1NCc1c(-c2ccc(OC(=O)c3ccco3)cc2OC)ccc2c1C(C)=CC(C)(C)N2 [Compound 1-3, 6-[4-(Furan-2-ylcarbonyloxy)-2-methoxyphenyl]-5-(2-methoxyphenylaminomethyl)-2,2,4-trimethyl-1,2-dihydroquinoline] | 76%
2 | COc1ccccc1C(=O)Oc1ccc(-c2ccc3c(c2COc2cc(F)ccc2C)C(C)=CC(C)(C)N3)c(OC)c1 [Compound 1-6, 5-(5-Fluoro-2-methylphenoxymethyl)-6-[2-methoxy-4-(2-methoxybenzoyloxy)phenyl]-2,2,4-trimethyl-1,2-dihydroquinoline] | 93%
3 | COc1cc(OC(=O)c2cccnc2)ccc1-c1ccc2c(c1COc1cc(F)ccc1C)C(C)=CC(C)(C)N2 [Compound 1-8, 5-(5-Fluoro-2-methylphenoxymethyl)-6-[2-methoxy-4-(pyridin-3-ylcarbonyloxy)phenyl]-2,2,4-trimethyl-1,2-dihydroquinoline] | 94%
4 | COc1cc(OC(=O)Cc2ccccc2)ccc1-c1ccc2c(c1COc1cc(F)ccc1C)C(C)=CC(C)(C)N2 [Compound 1-15, 5-(5-Fluoro-2-methylphenoxymethyl)-6-(2-methoxy-4-phenylacetoxyphenyl)-2,2,4-trimethyl-1,2-dihydroquinoline] | 77%
5 | COc1cc(OC(=O)c2ccccc2OC(C)=O)ccc1-c1ccc2c(c1COc1cc(F)ccc1C)C(C)=CC(C)(C)N2 [Compound 1-36, 6-[4-(2-Acetoxybenzoyloxy)-2-methoxyphenyl]-5-(5-fluoro-2-methylphenoxymethyl)-2,2,4-trimethyl-1,2-dihydroquinoline] | 75%
6 | COc1cc(OC(=O)c2ccccc2SC)ccc1-c1ccc2c(c1COc1cc(F)ccc1C)C(C)=CC(C)(C)N2 [Compound 1-38] | 75%
7 | COc1cc(OC(=O)c2cscn2)ccc1-c1ccc2c(c1COc1cc(F)ccc1C)C(C)=CC(C)(C)N2 [Compound 1-40, 5-(5-Fluoro-2-methylphenoxymethyl)-6-[2-methoxy-4-(thiazol-4-ylcarbonyloxy)phenyl]-2,2,4-trimethyl-1,2-dihydroquinoline] | 75%
8 | COc1cc(OC(=O)c2ccccc2F)ccc1-c1ccc2c(c1COc1cc(F)ccc1C)C(C)=CC(C)(C)N2 [Compound 1-45, 6-[4-(2-Fluorobenzoyloxy)-2-methoxyphenyl]-5-(5-fluoro-2-methylphenoxymethyl)-2,2,4-trimethyl-1,2-dihydroquinoline] | 77%
9 | COc1cc(OC(=O)c2ccc(C)o2)ccc1-c1ccc2c(c1COc1cc(F)ccc1C)C(C)=CC(C)(C)N2 [Compound 1-48, 5-(5-Fluoro-2-methylphenoxymethyl)-6-[2-methoxy-4-(5-methylfuran-2-ylcarbonyloxy)phenyl]-2,2,4-trimethyl-1,2-dihydroquinoline] | 73%
10 | COC(=O)c1cccc(C(=O)Oc2ccc(-c3ccc4c(c3COc3cc(F)ccc3C)C(C)=CC(C)(C)N4)c(OC)c2)c1 [Compound 1-54, 5-(5-Fluoro-2-methylphenoxymethyl)-6-[2-methoxy-4-(3-methoxycarbonylbenzoyloxy)phenyl]-2,2,4-trimethyl-1,2-dihydroquinoline] | 75%
11 | COc1cc(OC(=O)c2ccc(C)nc2)ccc1-c1ccc2c(c1COc1cc(F)ccc1C)C(C)=CC(C)(C)N2 [Compound 1-55, 5-(5-Fluoro-2-methylphenoxymethyl)-6-[2-methoxy-4-(6-methylpyridin-3-ylcarbonyloxy)phenyl]-2,2,4-trimethyl-1,2-dihydroquinoline] | 76%
12 | COc1cc(OC(=O)c2occc2C)ccc1-c1ccc2c(c1COc1cc(F)ccc1C)C(C)=CC(C)(C)N2 [Compound 1-57, 5-(5-Fluoro-2-methylphenoxymethyl)-6-[2-methoxy-4-(3-methylfuran-2-ylcarbonyloxy)phenyl]-2,2,4-trimethyl-1,2-dihydroquinoline] | 86%
13 | COc1cc(OC(=O)C(C)(C)C)ccc1-c1ccc2c(c1COc1cc(F)ccc1C)C(C)=CC(C)(C)N2 [Compound 1-58, 6-(4-t-Butylcarbonyloxy-2-methoxyphenyl)-5-(5-fluoro-2-methylphenoxymethyl)-2,2,4-trimethyl-1,2-dihydroquinoline] | 76%
14 | COc1cc(OC(=O)c2ccnc(Cl)c2)ccc1-c1ccc2c(c1COc1cc(F)ccc1C)C(C)=CC(C)(C)N2 [Compound 1-68, 6-[4-(2-Chloropyridin-4-ylcarbonyloxy)-2-methoxyphenyl]-5-(5-fluoro-2-methylphenoxymethyl)-2,2,4-trimethyl-1,2-dihydroquinoline] | 72%
15 | COc1cc(OC(=O)c2ccncc2F)ccc1-c1ccc2c(c1COc1cc(F)ccc1C)C(C)=CC(C)(C)N2 [Compound 1-69, 5-(5-Fluoro-2-methylphenoxymethyl)-6-[4-(3-fluoropyridin-4-ylcarbonyloxy)-2-methoxyphenyl]-2,2,4-trimethyl-1,2-dihydroquinoline] | 72%
16 | COc1ccc([N+](=O)[O-])cc1OCc1c(-c2ccc(OC(=O)c3ccsc3)cc2OC)ccc2c1C(C)=CC(C)(C)N2 [Compound 1-81, 5-(2-Methoxy-5-nitrophenoxymethyl)-6-[2-methoxy-4-(thiophen-3-ylcarbonyloxy)phenyl]-2,2,4-trimethyl-1,2-dihydroquinoline] | 76%
17 | COc1ccccc1NCc1c(-c2ccc(OC(=O)c3cccnc3C)cc2OC)ccc2c1C(C)=CC(C)(C)N2 [Compound 1-91, 6-[2-Methoxy-4-(2-methylpyridin-3-ylcarbonyloxy)phenyl]-5-(2-methoxyphenylaminomethyl)-2,2,4-trimethyl-1,2-dihydroquinoline] | 92%
18 | COc1ccccc1NCc1c(-c2ccc(OC(=O)c3ccccc3)cc2OC)ccc2c1C(C)=CC(C)(C)N2 [Compound 1-92, 6-(4-Benzoyloxy-2-methoxyphenyl)-5-(2-methoxyphenylaminomethyl)-2,2,4-trimethyl-1,2-dihydroquinoline] | 79%
19 | COc1ccccc1NCc1c(-c2ccc(OC(=O)c3ccoc3)cc2OC)ccc2c1C(C)=CC(C)(C)N2 [Compound 1-95, 6-[4-(Furan-3-ylcarbonyloxy)-2-methoxyphenyl]-5-(2-methoxyphenylaminomethyl)-2,2,4-trimethyl-1,2-dihydroquinoline] | 87%
20 | COc1cc(OC(=O)c2ccccc2Cl)ccc1-c1ccc2c(c1CNc1cc(F)ccc1C)C(C)=CC(C)(C)N2 [Compound 1-98, 6-[4-(2-Chlorobenzoyloxy)-2-methoxyphenyl]-5-(5-fluoro-2-methylphenylaminomethyl)-2,2,4-trimethyl-1,2-dihydroquinoline] | 78%
21 | COc1ccccc1NCc1c(-c2ccc(OC(=O)c3ccccc3Cl)cc2OC)ccc2c1C(C)=CC(C)(C)N2 [Compound 1-99, 6-[4-(2-Chlorobenzoyloxy)-2-methoxyphenyl]-5-(2-methoxyphenylaminomethyl)-2,2,4-trimethyl-1,2-dihydroquinoline] | 89%
22 | COc1ccccc1NCc1c(-c2ccc(OC(=O)c3ccccc3F)cc2OC)ccc2c1C(C)=CC(C)(C)N2 [Compound 1-101, 6-[4-(2-Fluorobenzoyloxy)-2-methoxyphenyl]-5-(2-methoxyphenylaminomethyl)-2,2,4-trimethyl-1,2-dihydroquinoline] | 81%
23 | COc1ccccc1NCc1c(-c2ccc(OC(=O)c3cccs3)cc2OC)ccc2c1C(C)=CC(C)(C)N2 [Compound 1-104, 5-(2-Methoxyphenylaminomethyl)-6-[2-methoxy-4-(thiophen-2-ylcarbonyloxy)phenyl]-2,2,4-trimethyl-1,2-dihydroquinoline] | 84%
24 | COc1cc(OC(=O)c2ccco2)ccc1-c1ccc2c(c1CNc1cc(F)ccc1C)C(C)=CC(C)(C)N2 [Compound 1-106, 5-(5-Fluoro-2-methylphenylaminomethyl)-6-[4-(furan-2-ylcarbonyloxy)-2-methoxyphenyl]-2,2,4-trimethyl-1,2-dihydroquinoline] | 82%
25 | COC(=O)c1cccc(C(=O)Oc2ccc(-c3ccc4c(c3CNc3ccccc3OC)C(C)=CC(C)(C)N4)c(OC)c2)c1 [Compound 1-107, 6-[2-Methoxy-4-(3-methoxycarbonylbenzoyloxy)phenyl]-5-(2-methoxyphenylaminomethyl)-2,2,4-trimethyl-l,2-dihydroquinoline] | 85%
26 | COc1ccccc1NCc1c(-c2ccc(OC(=O)c3ccc(F)cc3)cc2OC)ccc2c1C(C)=CC(C)(C)N2 [Compound 1-110, 6-[4-(4-Fluorobenzoyloxy)-2-methoxyphenyl]-5-(2-methoxyphenylaminomethyl)-2,2,4-trimethyl-1,2-dihydroquinoline] | 83%
